Reference: patent US20190000976A1, “Purgative Composition” (CTC BIO, INC., priority 2016, published 2019)

Assays:
[1] = Stability of sodium picosulfate in solution alone, with polyethylene glycol 4000 or with sorbitol (content by HPLC, British Pharmacopoeia); format: physicochemical
Method: The solution was stored at room temperature, in accelerated condition (40° C., 75%RH), and stress condition (60° C., 75%RH).

[2] = Stability of sodium picosulfate in polyethylene glycol 3350 / sorbitol solution with sodium hydrogencarbonate or sodium citrate, 3 weeks (content by HPLC); format: physicochemical; conditions: by comprising sodium hydrogencarbonate or sodium citrate
Method: The solution was stored at room temperature or stress condition (60° C., 75%RH) for 3 weeks. The content of sodium picosulfate was evaluated. The content of sodium picosulfate was determined by ‘Sodium picosulfate powder for oral solution’ test method of British Pharmacopoeia using high performance liquid chromatography.

O=S(=O)(O)Oc1ccc(C(c2ccc(OS(=O)(=O)O)cc2)c2ccccn2)cc1 [sodium picosulfate]
Content (%) of sodium picosulfate, After 1 week Accelerated condition ([1]; 1 week, accelerated condition (40° C., 75%RH)): 102.2% | Content (%) of sodium picosulfate, After 1 week Room temp. ([1]; 1 week, room temperature): 102.2% | Content (%) of sodium picosulfate, After 1 week Stress condition ([1]; 1 week, stress condition (60° C., 75%RH)): 102.4% | Content (%) of sodium picosulfate, After 2 weeks Room temp. ([1]; 2 weeks, room temperature): 102.4% | Content (%) of sodium picosulfate, After 2 weeks Stress condition ([1]; 2 weeks, stress condition (60° C., 75%RH)): 102.5% | Content (%) of sodium picosulfate, Initial ([1]; Initial, 300 ml solution): 102.4% | Stability of sodium picosulfate (in words) ([1]; when mixed with polyethylene glycol): very unstable | Instability of sodium picosulfate caused by mixing with polyethylene glycol (in words) [2]: improved dramatically
